pKd: −log10 of the molar value.
Assays:
BSA = molecular target: T1, BSA (Bos taurus, UniProt P02769); test: BLI monitoring of covalent reaction, BSA control; assay type: binding; conditions: 10 μM cARM, 230 μM BSA in lieu of IgG
T1 construct: purchased Sigma Aldrich A9576-50ML
Source text: (§1) The design of rhamnose-SO2F-cARM was again supported by in-silico docking and predicted to preorganize electrophilic SO2F proximal to lysine 104 and serine 53 of the anti-23F heavy chain as well as tyrosine 32 of the light chain (Figure S3). To evaluate the capacity of rhamnose-SO2F-cARMs to specifically label polyclonal antirhamnose antibodies, a tool cARM with a biotin TBD was synthesized (compound 12, Figure 4A, Scheme S5). As an orthogonal kinetics assay to fluorescent gels, tool compound 12 labeling kinetics was first evaluated using an in-house BLI assay and compared to acyl imidazole cARM and ARM analogs. […] Solutions were immediately loaded onto streptavidin probes (Figure 4B, Figure S8). In this assay, rhamnose competition blocks noncovalent antirhamnose recruitment, thus the signal amplitude is directly proportional to the covalently labeled antibody product.
(§2) Figure 4 Selectivity and kinetic analysis of optimized Rha-SO2F-cARMs A. Chemical structures of tool compounds used in this study. B. cARM 12 (10 μM) was incubated with human IgG or BSA (230 μM) then diluted 8× with 100 mM competitor rhamnose spiked kinetics buffer and loaded onto streptavidin probes in BLI. The association plateau was plotted against time to yield the % labeled vs time covalent labeling curve C. Kinetic fluorescence SDS-PAGE assay similar to that in Figure 2D. […]

anti-23F antibody [1] = test: Mass spectrometry study of anti-23F labelling; assay type: binding, human; conditions: 10 µM cARM, 2.7 µM anti-23F, 45 hours
Experimental: To further confirm selectivity, an MS study was conducted to determine the site of labeling (Figures S10 and S11). […] No other labeling site was detected on the light chain; however, the lability of the SO2F-serine/tyrosine linkage to MS sample preparation protocols likely limited complete labeling site coverage. […] Due to the low labeling efficiency of rhamnose-AI-cARM, no labeling site could be identified. […] Determining the selectivity for antirhamnose antibodies in the presence of off-target cell surface proteins will be the focus of future in vivo studies.
Mass Spectrometry Study – Anti-23F Labelling
Anti-23F (2.7 µM) was incubated with 10 µM of Biotin-AI-cAR M 4 or Biotin-SO2F-cAR M 12, or PBS (antibody only) for 45 hours before MS analysis. Analysis was completed by Bioinformatics Solutions
Inc. Briefly, for intact protein analysis each sample was treated with PNGase F to remove glycans followed by LC-MS analysis. To determine site of labelling, each sample was digested with tryspin, chymostrypsin, and pepsin then analyzed by LC-MS/MS on a timsTOF Pro. Peptide spectra were mapped to a known antibody sequence (anti -23F antibody, Creative Biolabs - PABX-173). No labelling was identified with acyl imidazole containing cARM 4. […]
approxima tely 30% labelling post MS protocol (Figure S11)
Figure S10. Sample analysis of peptide mapping of anti-23F heavy chain. Modification with cARM 12 is […]
(1 picture or pasted object on this page, not shown here)

[2] = system: human IgG (polyclonal antirhamnose antibodies); test: BLI monitoring of covalent reaction with human IgG (Figure 4B); assay type: binding; conditions: 10 μM cARM, 230 μM human IgG, up to 25 h
Source text: as §1, §2

anti-23F antibody [3] = test: Kinetic SDS-PAGE fluorescence labelling kinetics; assay type: binding, human; conditions: rhamnose and antirhamnose antibody; approximated from KI
Experimental: Figure 2 Capacity of Rha-cARMs to specifically covalently engage monoclonal anti-23F and serum anti-rhamnose. A. Chemical structures of the molecules investigated. B. Assessment of covalent vs noncovalent (cARM/ARM) engagement of human serum antirhamnose antibody via an ELISA assay. Each ARM/cARM (2 μM) was incubated with 2% human serum for 48 h and subsequently incubated directly on a streptavidin ELISA plate. Recruitment was evaluated by the addition of anti-IgG or anti-IgM HRP-conjugated secondary antibody with subsequent chromogenic substrate addition. “Comp” represents the addition of competitor rhamnose (500 mM) during 48 h of incubation. […] D. Kinetic SDS-PAGE fluorescence imaging experiment to determine Rha-AI-cARM/anti-23F antibody labeling kinetics using A647-cARM (8). cARM 8 (2–100 μM) was incubated with anti-23F antibody (2 μM) for up to 4 h. A representative fluorescence gel image is included corresponding to compound 8 (50 μM) incubated with either anti-23F antibody or isotype human IgG. Densitometry analysis with ImageJ was used to quantify relative band intensities. […] The error is calculated by alternative fits of initial rates data (all within the linear labeling range). […]
Figure 4 Selectivity and kinetic analysis of optimized Rha-SO2F-cARMs A. Chemical structures of tool compounds used in this study. […] Kinetic fluorescence SDS-PAGE assay similar to that in Figure 2D. […]

Row | SMILES | loading/labeling with BSA (BSA) | site of labelling (LC-MS/MS peptide mapping) (anti-23F antibody [1]) | labelling by intact MS (anti-23F antibody [1]; post MS protocol) | reaction time to plateau of labeled antibody signal [2] | pKd (anti-23F antibody [3])
1 | C[C@@H]1O[C@@H](OCCNC(=O)C(CCCCNC(=O)OCCOCCOCCOCCOCCOCCOCCOCCNC(=O)CCCC[C@@H]2SC[C@@H]3NC(=O)N[C@@H]32)NC(=O)c2cccc(S(=O)(=O)F)c2)[C@H](O)[C@H](O)[C@H]1O (some centres unmarked) [compound 12] | minimal loading/labeling | only lysine 104 of antibody heavy chain | ~30% | ≤ 10 h | 
2 | C[C@H](O)[C@H](O)[C@@H](O)[C@@H](O)C=O [rhamnose, L-rhamnose] |  |  |  |  | ~4.82

Reference: article PMC10683482, “Offsetting Low-Affinity Carbohydrate Binding with Covalency to Engage Sugar-Specific Proteins for Tumor-Immune Proximity Induction” (ACS Central Science, 2023)
